Measurements from patent US10781200B2, “Therapeutic inhibitory compounds” (Attune Pharmaceuticals, Inc., priority 2016, dated 2020).

Assay: Pharmacokinetic study, oral exposure in rats
Format: in vivo
Conditions: male Sprague-Dawley rats, single oral dose 10 mg/kg, plasma
Method: Pharmacokinetic studies of select compounds were performed to assess the pharmacokinetic properties. Male Sprague-Dawley rats were administered a single oral dose of the test compound at 10 mg/kg (dose concentration: 2 mg/mL, dose volume: 5 ml/kg) via oral gavage. Blood samples were collected via jugular vein at pre-dose, post-dose 5 min, 15 min, 30 min, 1 h, 2 h, 4 h, 6 h, 8 h, 10 h and 24 h, and centrifuged (8000 rpm for 6 minutes at 2-8° C.). The resulting plasma fractions were analyzed by LC/MS/MS to determine the concentration of the test compound.

Q: Which AUC does the source give for `Cc1cc(N)nc(C)c1CNC(=O)c1c[nH]c(Cc2ccc3ncc(Cl)cc3c2)n1` [Example 5, N-((6-amino-2,4-dimethylpyridin-3-yl)methyl)-2-((3-chloroquinolin-6-yl)methyl)-1H-imidazole-5-carboxamide] here?
A: The AUC was “BLQ”.

Q: With `Cc1cc(N)nc(C)c1CNC(=O)c1cn(Cc2ccc3ncc(Cl)cc3c2)c2ccncc12` [Example 35, N-((6-amino-2,4-dimethylpyridin-3-yl)methyl)-1-((3-chloroquinolin-6-yl)methyl)-1H-pyrrolo[3,2-c]pyridine-3-carboxamide] as the compound, how does the AUC read?
A: The AUC was “BLQ”.

Q: For `Cc1cc(N)nc(C)c1CNC(=O)c1cn(Cc2ccc3ncc(Cl)cc3c2)c2cnc(C#N)cc12` [Example 134, N-((6-amino-2,4-dimethylpyridin-3-yl)methyl)-1-((3-chloroquinolin-6-yl)methyl)-5-cyano-1H-pyrrolo[2,3-c]pyridine-3-carboxamide], which AUC is on record?
A: The AUC was “BLQ”.
